For data set [1], the system named is primary DRG sensory neurons. In kind it is cell-based, rat. The conditions noted are these: for relative neurotoxicity (potency in inhibiting neuritic outgrowth): comparison between NRTIs.
Data set [2] has as its system primary DRG sensory neurons. Conditions: rat, 4 h.
Data set [3] relates to primary DRG sensory neurons. It is filed as cell-based.
Data set [4] deals with Schwann cells.
For data set [5], the system named is Schwann cells. Description: Cell death in Schwann cells of the co-cultures. It is filed as cell-based, rat. Conditions: ddC dose of 1 mM (data not shown).
Data set [6] relates to primary DRG sensory neurons. Description: Neuronal mitochondrial toxicity assay (JC-1 red:green fluorescence in TTC-labeled neurons). The conditions noted are these: 4 hours; NRTIs 1-100 μM, FCCP 25 μM.
Setting [7] is: NRTI 1-100 μM added at 3 hours, 15 hours of further incubation.

Five compounds from patent publication US20050131029A1, “Immunophilin ligand treatment of antiretroviral toxic neuropathy” (priority 2003, published 2005) can be followed below.

As for `Nc1ccn([C@H]2CC[C@@H](CO)O2)c(=O)n1` [ddC, 2′,3′-dideoxycytidine], in data set [1] (setting [7]), the “effect on neuritic morphology” value is on record as “frank neuritic degeneration was also seen”; the “total neuritic length and number of neurites per neuron” value was “dose-dependent reduction”. Moreover, in data set [1], the “relative neurotoxicity (potency in inhibiting neuritic outgrowth)” value was “most neurotoxic”. Also, the “concentration achieving the same level of mitochondrial membrane depolarization as (25 μM) FCCP” value in data set [2] was 1000 nM. Besides, the “TUNEL staining of neurons (marker of apoptosis)” value in data set [3] (ddC 10 μM, 18 hours (data not shown)) is on record as “lack of DNA laddering”. In addition, in data set [3] (exposure for 18 hours, varying doses), the “neuronal cell death (percentage of neurons labeling with live-cell marker)” value is on record as “higher doses of ddC were associated with a lower percentage of neurons labeling with the “live-cell” marker”. Besides, in the data set on Schwann cells [4], the “mitochondrial depolarization in Schwann cells” value is “no evidence of mitochondrial depolarization”. Also, the “cell death in Schwann cells” value in the data set on Schwann cells [5] was “no cell death”.
Regarding `O=c1[nH]cnc2c1ncn2[C@H]1CC[C@@H](CO)O1` [ddl, didanosine], the “concentration achieving the same level of mitochondrial membrane depolarization as (25 μM) FCCP” value in data set [2] was 1000 nM.
With `N#CC(C#N)=NNc1ccc(OC(F)(F)F)cc1` [FCCP], the “JC-1 red:green luminosity ratio (mitochondrial membrane potential differential)” value in data set [6] is recorded as “loss of mitochondrial membrane potential”.
As to `Cc1cn([C@H]2C[C@H](N=[N+]=[N-])[C@@H](CO)O2)c(=O)[nH]c1=O` [AZT, zidovudine], in data set [1] (setting [7]), the “effect on neuritic morphology” value is “did not have any appreciable effect on neuritic morphology, even at high doses”. In addition, the “relative neurotoxicity (potency in inhibiting neuritic outgrowth)” value in data set [1] was “did not exert significant neurotoxicity”.
As for `C=CC[C@@H]1/C=C(\C)C[C@H](C)C[C@H](OC)[C@H]2O[C@@](O)(C(=O)C(=O)N3CCCC[C@H]3C(=O)O[C@H](/C(C)=C/[C@@H]3CC[C@@H](O)[C@H](OC)C3)[C@H](C)[C@@H](O)CC1=O)[C@H](C)C[C@@H]2OC` [FK506], the “concentrations at which prevention of neuronal cell death was most prominent” value in data set [3] (ddC 10 μM, 18 hours) fell in the range of 10 to 100 nM.
